# Experimental data: patent publication US12391652B2 (priority 2019, dated 2025)
# Key:
# [1] = test system: blast fungus (Pyricularia oryzae); format: in vivo; settings: for Efficacy (%): 50 ppm foliar spray on rice (cv; Hinohikari), 8 days outdoor, then 11 days in contact with infected rice plants, lesion area vs untreated group; for Efficacy compared to the Ra4 type crystal form: rice blast, 50 ppm
# [2] = test system: soybean rust fungus (Phakopsora pachyrhizi); test: Test Example 1: curative foliar spray against soybean rust on potted soybean; format: in vivo; settings: for Efficacy (%): 2 ppm foliar spray on soybean (cv; Kurosengoku) 4 days after inoculation, lesion area 7 days after spraying vs untreated group
# Procedure: Each of 5 parts of the Ra1 type crystal form, or the Ra4 type crystal form as comparison control, 35 parts of a mixture of white carbon and ammonium polyoxyethylene alkyl ether sulfate (weight ratio is 1:1) and 60 parts of water were mixed, and the mixture was then finely-ground by a wet grinding method to obtain a formulation. Water was then added to the formulation so as to be 2 ppm as the concentration of the Ra1 type crystal form or the Ra4 type crystal form to obtain dilutions respectively.
# Each of plastic pots was filled with soil and thereto soybean (cv; Kurosengoku) seeds were sown and the soybeans were grown in a greenhouse for 15 days. Thereafter, an aqueous suspension of spores of soybean rust fungus (Phakopsora pachyrhizi) was spraying-inoculated. After the inoculation, the soybeans were placed under a dark and wet condition at 23° C. for 1 night and were further cultivated in a greenhouse for 3 days, and the above-mentioned diluted dilutions were sprayed to foliar parts so as to adhere adequately on the leaves of the above-mentioned soybean. After spraying the dilutions, the plants were air-dried and were placed under a dark and wet condition at only night, and after 7 days of the spraying, the lesion area was observed (lesion area in treated group).
# Whereas, in the untreated group, the similar procedures to those of the treated group except that the Ra1 type crystal form or the Ra4 type crystal form were not applied, were carried out and the lesion area of soybean rust disease in the untreated group was observed (lesion area in untreated group).
# From each of the lesion area in the treated group or the untreated group respectively, the efficacy in the treated group was calculated by the following “Equation 1”. Efficacy (%)=[1−(lesion area in the treated group/lesion area in the untreated group)]×100 [Equation 1]
SMILES,Efficacy (%) [1] [%],Efficacy compared to the Ra4 type crystal form [1],Efficacy (%) [2] [%],"Efficacy compared to the Ra4 type crystal form ([2]; soybean rust, 2 ppm)"
"CC1CC(C)(C)c2cccc(NC(=O)c3cn(C)nc3C(F)F)c21 (racemic) [Ra3 type crystal form, 3-(difluoromethyl)-1-methyl-N-(1,1,3-trimethyl-2,3-dihydro-1H-inden-4-yl)-1H-pyrazole-4-carboxamide]",75,higher efficacy compared to the Ra4 type crystal form,–,–
"CC1CC(C)(C)c2cccc(NC(=O)c3cn(C)nc3C(F)F)c21 (racemic) [Ra2 type crystal form, 3-(difluoromethyl)-1-methyl-N-(1,1,3-trimethyl-2,3-dihydro-1H-inden-4-yl)-1H-pyrazole-4-carboxamide]",85,higher efficacy compared to the Ra4 type crystal form,–,–
"CC1CC(C)(C)c2cccc(NC(=O)c3cn(C)nc3C(F)F)c21 (racemic) [Ra1 type crystal form, 3-(difluoromethyl)-1-methyl-N-(1,1,3-trimethyl-2,3-dihydro-1H-inden-4-yl)-1H-pyrazole-4-carboxamide]",–,–,72,higher efficacy compared to the Ra4 type crystal form
"CC1CC(C)(C)c2cccc(NC(=O)c3cn(C)nc3C(F)F)c21 (racemic) [Ra4 type crystal form, 3-(difluoromethyl)-1-methyl-N-(1,1,3-trimethyl-2,3-dihydro-1H-inden-4-yl)-1H-pyrazole-4-carboxamide, reference compound]",50,–,54,–
